In experiment [1] the target is T1, Human GPR120 short form (Homo sapiens, UniProt Q5NUL3).
T1 construct: expressed in transfected cells
T1 sequence (Q5NUL3 1-361): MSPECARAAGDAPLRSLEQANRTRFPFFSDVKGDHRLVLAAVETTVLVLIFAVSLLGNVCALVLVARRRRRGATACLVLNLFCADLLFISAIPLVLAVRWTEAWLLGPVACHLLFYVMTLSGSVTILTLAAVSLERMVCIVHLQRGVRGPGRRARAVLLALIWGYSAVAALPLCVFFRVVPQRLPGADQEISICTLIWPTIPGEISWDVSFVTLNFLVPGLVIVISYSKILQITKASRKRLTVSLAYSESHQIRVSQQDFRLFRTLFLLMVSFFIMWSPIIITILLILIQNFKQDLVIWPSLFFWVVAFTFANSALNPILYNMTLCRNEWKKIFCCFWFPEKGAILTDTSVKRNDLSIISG
Kind of experiment: Human GPR120 calcium flux assay, Procedure Calcium A. The class given is cell-based. To be noted: HEK-293 cells expressing human GPR120 short form, 2500 cells/well, FLIPR. An excerpt: (§1) This in vitro assay serves to assess test compound agonist activity against the short splice variant (SVS with Accession number NM_001195755.1 confirmed by sequencing data) of the GPR120 receptor. The Human Short splice variant #2 (NM_001195755.1) is missing an in-frame coding exon compared to variant 1 (the Human Long splice variant NM_181745.3), resulting in a shorter isoform (GPR120-S) lacking a 16 aa protein segment compared to isoform GPR120-L. The assay platform utilizes HEK-293 cells stably transfected to express the Human GPR120 short form. These cells are first loaded with the Ca^+2 sensitive dye, Fluo-4 NW. Upon stimulation, intracellular released Ca^+2 can bind to the dye and alter its fluorescence intensity. This increase in fluorescence signal, and thus the flux in intracellular [Ca^2+], is detected and quantitated by fluorescence imaging using a FLIPR reader. The effect of the agonist is measured as a function of concentration and used to calculate an EC50 based upon a response curve.
In this procedure 2500 cells/well were employed.
(§2) A Human GPR120 clone (Genbank accession number NM_001195755.1) was placed into the pcDNA3.1 mammalian expression vector carrying the neomycin resistance gene. A stable mammalian cell was generated by placing the above clone into a HEK293 background. Clonal cells responding to long chain fatty acids had expression levels of GPR120 confirmed by RT-qPCR. Human HEK-GPR120 cells were cultured in Dulbecco's Modified Eagle's Medium (DMEM)/F12 medium supplemented with 10% fetal bovine serum (FBS), 1% L-Glutamine and 1% penicillin/streptomycin and 0.5 mg/ml G-418. Cells were split 2 times a week to keep the cells in the log-phase growth.
(§3) In preparation for the assay, HEK cells stably transfected with Human GPR120 (2.5K cells per well in 25 uL growth medium) were seeded into 384-well plates and then incubated overnight (37° C., 5% CO2). The next day, the media was changed to 20 μl assay buffer and the cell starved for 1 h at 37° C. The dye loading solution (2× dye) was prepared using 10 ml assay buffer, 100 μl of 250 mM probenecid, 1 bottle of Component A, and 20 μl of dye in DMSO. Twenty μl of the 2× dye loading buffer was then added to each well. The plates were incubated at 37° C. for 30 min, then at room temperature for an additional 15 minutes, before performing the assay on FLIPR.
(§4) Test compounds were prepared in assay buffer (2 μl of test compound+198 μl assay buffer, final DMSO in assay plate is 0.2%) at the desired concentration, more particularly at 100 μM, 50 μM, 25 μM, 12.5 μM, 6.25 μM, 3.125 μM, 1.562 μM, 0.781 μM, 0.391 μM, 0.195 μM, 0.098 μM, 0.049 μM, 0.024 μM and 0.012 μM.
(§5) The assay was performed on a FLIPR plate reader using the following parameters. Baseline was read for 10 seconds at 1 sec intervals. The program was set to transfer 10 μL of ligand from compound plate to cell plate after baseline reading. Aspiration was executed at: 10 μl/sec speed, 4.6 μl height; Dispensing was executed at: 30 μl/sec speed, 45 μl height. After compound addition, each well was read for 300 sec, with measurements collected at 1 sec intervals.
(§6) The kinetic data from the FLIPR was based upon a 5 minute window for data collection. The fluorescence of each sample well was used for individual calculations of a normalized RFU value, which was defined as maximum response minus the minimum response. The normalized fluorescence reading (RFU) was calculated as follows: RFU=Fmax−Fmin
(§7) The data were fitted to a sigmoidal dose-response curve with a variable Hill slope (<2) using nonlinear regression with GraphPad Prism 5.0 to calculate the EC50 values. The Fitting Equation was: Y=Bottom+(Top−Bottom)/(1+10^((LogEC50−X)*HillSlope)), where X is the log of the concentration and Y is the response.
(In general: Calcium assays in cells follow changes in intracellular calcium, usually with a dye or a luminescent sensor.)

The target in experiment [2] is T1, Human GPR120 short form. Kind of experiment: Human GPR120 calcium flux assay, Procedure Calcium B. The class given is cell-based. The note with it: HEK-293 cells expressing human GPR120 short form, 4200 cells/well, FLIPR.
Source text: as §1
In this procedure 4200 cells/well were employed.
as §2, §3, §4, §5, §6, §7

pEC50: −log10 of the molar value.

Consider `CCc1ccc(-n2cccc2COc2ccc(CCC(=O)O)c(C)c2C)cc1` [Compound 2, 3-(4-{[1-(4-Ethylphenyl)-1H-pyrrol-2-yl]methoxy}-2,3-dimethylphenyl)propanoic acid], for which the pEC50 at Human GPR120 short form [1] is less than 4.70.
Regarding `O=C(O)CCc1ccc(OCc2cccn2-c2ccc(Cl)cc2)c(F)c1F` [Compound 4, 3-(4-{[1-(4-Chlorophenyl)-1H-pyrrol-2-yl]methoxy}-2,3-difluorophenyl)propanoic acid], the pEC50 at Human GPR120 short form [1] was less than 4.70.
Turning to `Cc1c(CCCO)ccc(OCc2c(Cl)ccn2-c2ccc(Cl)cc2)c1C` [Compound 7, 3-(4-{[3-Chloro-1-(4-chlorophenyl)-1H-pyrrol-2-yl]methoxy}-2,3-dimethylphenyl)propan-1-ol], the results for the pEC50 at Human GPR120 short form [1] and at Human GPR120 short form [2] were 5.76 and 5.93, respectively.
For `N#Cc1ccn(-c2ccc(Cl)cc2)c1COc1ccc(CCC(=O)O)c(F)c1F` [Compound 9, 3-(4-{[1-(4-Chlorophenyl)-3-cyano-1H-pyrrol-2-yl]methoxy}-2,3-difluorophenyl)propanoic acid], in that order: 5.43 and 5.86.
For `Cc1c(CCC(=O)O)ccc(OCc2c(C#N)ccn2-c2ccc(Cl)cc2)c1C` [Compound 12, 3-(4-{[1-(4-Chlorophenyl)-3-cyano-1H-pyrrol-2-yl]methoxy}-2,3-dimethylphenyl)propanoic acid], in that order: 5.37 and 5.94.
For `Cc1c(CCCO)ccc(OCc2c(Br)ccn2-c2ccc(Cl)cc2)c1C` [Compound 13, 3-(4-{[3-Bromo-1-(4-chlorophenyl)-1H-pyrrol-2-yl]methoxy}-2,3-dimethylphenyl)propan-1-ol], the pEC50 on Human GPR120 short form [1] is 5.81; on Human GPR120 short form [2], 6.05.
`Cc1c(CCC(=O)O)ccc(OCc2c(Br)ccn2-c2ccc(Cl)cc2)c1C` [Compound 14, 3-(4-{[3-Bromo-1-(4-chlorophenyl)-1H-pyrrol-2-yl]methoxy}-2,3-dimethylphenyl)propanoic acid]: the pEC50 at Human GPR120 short form [1] is 5.54; at Human GPR120 short form [2], 5.86.
Take `Cc1c(CCCO)ccc(OCc2c(C(F)(F)F)ccn2-c2ccc(Br)cc2)c1C` [Compound 18, 3-(4-{[1-(4-Bromophenyl)-3-(trifluoromethyl)-1H-pyrrol-2-yl]methoxy}-2,3-dimethylphenyl)propan-1-ol]: the pEC50 is 5.88 at Human GPR120 short form [1] and 6.21 at Human GPR120 short form [2].
In the case of `O=C(O)CCc1ccc(OCc2c(C(F)(F)F)ccn2-c2ccc(Br)cc2)c(F)c1F` [Compound 20, 3-(4-{[1-(4-Bromophenyl)-3-(trifluoromethyl)-1H-pyrrol-2-yl]methoxy}-2,3-difluorophenyl)propanoic acid], the pEC50 is 5.90 on Human GPR120 short form [1] and 6.54 on Human GPR120 short form [2].
For `O=C(O)CCc1cc(F)c(OCc2c(C(F)(F)F)ccn2-c2ccc(Br)cc2)c(F)c1` [Compound 22, 3-(4-{[1-(4-Bromophenyl)-3-(trifluoromethyl)-1H-pyrrol-2-yl]methoxy}-3,5-difluorophenyl)propanoic acid], in that order: 5.82 and 6.95.
For `Cc1c(CCC(=O)O)ccc(OCc2c(C(F)(F)F)ccn2-c2ccc(Br)cc2)c1C` [Compound 23, 3-(4-{[1-(4-Bromophenyl)-3-(trifluoromethyl)-1H-pyrrol-2-yl]methoxy}-2,3-dimethylphenyl)propanoic acid], in that order: 5.95 and 6.70.
For the compound `O=C(O)CCc1cc(F)c(OCc2c(C(F)(F)C(F)(F)F)ccn2-c2ccc(Cl)cc2)c(F)c1` [Compound 63, 3-(4-((1-(4-chlorophenyl)-3-(perfluoroethyl)-1H-pyrrol-2-yl)methoxy)-3,5-difluorophenyl)propanoic acid], the pEC50 on Human GPR120 short form [2] was 5.94.
Consider `O=C(O)CCc1ccc(OCc2c(C(F)(F)F)ccn2-c2cccc(F)c2)cc1Cl` [Compound 79, 3-(2-Chloro-4-{[1-(3-fluorophenyl)-3-(trifluoromethyl)-1H-pyrrol-2-yl]methoxy}phenyl)propanoic acid], for which the pEC50 at Human GPR120 short form [2] was 6.00.
The same measure, in the same setting: the figure for `O=C(O)CCc1ccc(OCc2c(C(F)(F)F)ccn2-c2ccc(F)cc2)cc1Cl` [Compound 80, 3-(2-Chloro-4-{[1-(4-fluorophenyl)-3-(trifluoromethyl)-1H-pyrrol-2-yl]methoxy}phenyl)propanoic acid] is 6.03.
Same read-out and setting: to `O=C(O)CCc1ccc(OCc2c(C(F)(F)F)ccn2-c2cccc(F)c2)cc1C(F)(F)F` [Compound 81, 3-[4-{[1-(3-Fluorophenyl)-3-(trifluoromethyl)-1H-pyrrol-2-yl]methoxy}-2-(trifluoromethyl)phenyl]propanoic acid] belongs 6.17.
For the compound `O=C(O)CCc1ccc(OCc2c(C(F)(F)F)ccn2-c2ccc(F)cc2)cc1C(F)(F)F` [Compound 82, 3-[4-{[1-(4-Fluorophenyl)-3-(trifluoromethyl)-1H-pyrrol-2-yl]methoxy}-2-(trifluoromethyl)phenyl]propanoic acid], the pEC50 at Human GPR120 short form [2] was 6.08.
`Cc1c(CCC(=O)O)ccc(OCc2c(C(F)(F)F)ccn2-c2ccc(F)cc2)c1C` [Compound 83, 3-(4-{[1-(4-Fluorophenyl)-3-(trifluoromethyl)-1H-pyrrol-2-yl]methoxy}-2,3-dimethylphenyl)propanoic acid]: the pEC50 at Human GPR120 short form [2] is 6.46.
Same read-out and setting: to `Cc1c(CCC(=O)O)ccc(OCc2c(C(F)(F)F)ccn2-c2cccc(F)c2)c1C` [Compound 84, 3-(4-{[1-(3-Fluorophenyl)-3-(trifluoromethyl)-1H-pyrrol-2-yl]methoxy}-2,3-dimethylphenyl)propanoic acid] belongs 6.31.
Consider `O=C(O)CCc1cc(F)c(OCc2c(C(F)(F)F)ccn2-c2cccc(F)c2)c(F)c1` [Compound 85, 3-(3,5-Difluoro-4-{[1-(3-fluorophenyl)-3-(trifluoromethyl)-1H-pyrrol-2-yl]methoxy}phenyl)propanoic acid], for which the pEC50 at Human GPR120 short form [2] was 6.35.
Turning to `Cc1cc(CCC(=O)O)ccc1OCc1c(C(F)(F)F)ccn1-c1ccc(F)cc1` [Compound 86, 3-(4-{[1-(4-Fluorophenyl)-3-(trifluoromethyl)-1H-pyrrol-2-yl]methoxy}-3-methylphenyl)propanoic acid], the pEC50 at Human GPR120 short form [2] was 6.55.
Regarding `O=C(O)CCc1cc(F)c(OCc2c(C(F)(F)F)ccn2-c2ccc(F)cc2)c(F)c1` [Compound 87, 3-(3,5-Difluoro-4-{[1-(4-fluorophenyl)-3-(trifluoromethyl)-1H-pyrrol-2-yl]methoxy}phenyl)propanoic acid], the negative-log EC50 (pEC50) at Human GPR120 short form [2] is 6.87.
In the case of `Cc1cc(CCC(=O)O)ccc1OCc1c(C(F)(F)F)ccn1-c1cccc(F)c1` [Compound 88, 3-(4-{[1-(3-Fluorophenyl)-3-(trifluoromethyl)-1H-pyrrol-2-yl]methoxy}-3-methylphenyl)propanoic acid], the pEC50 at Human GPR120 short form [2] is 6.39.

In general, pEC50 refers to the negative decadic logarithm of the EC50, by convention in mol/L.

The record behind these values is patent publication US8912227B1, “Bicyclic pyrrole derivatives useful as agonists of GPR120” (Janssen Pharmaceutica NV, priority 2014, dated 2014).
